Reference: ChEMBL document CHEMBL1955809, “Discovery of GS-9256: a novel phosphinic acid derived inhibitor of the hepatitis C virus NS3/4A protease with potent clinical activity” (Bioorg Med Chem Lett, 2012)
The source made the active and inactive calls. The calls are words filed in the database; no cut-off is given here.

What was measured:
Hepatitis C virus [1] = experiment: Inhibition of HCV1b NS3/4A protease; design: species or system Hepatitis C virus subtype 1b; settings: for IC50: Hepatitis C virus
[2] = Permeability from basolateral to apical side in human Caco2 cells; type: ADME, cell-based; settings: Caco-2, read-out: permeability
[3] = Permeability from apical to basolateral side in human Caco2 cells; type: ADME, cell-based; settings: Caco-2, read-out: permeability
Hepatitis C virus [4] = experiment: Antiviral activity against HCV genotype 1b infected in human Huh cells expressing luc gene by replicon assay; type: functional, organism-based, Hepacivirus hominis
[5] = Clearance in dog; type: ADME, organism-based, Canis lupus familiaris; settings: in vivo
[6] = molecular target: Voltage-gated inwardly rectifying potassium channel KCNH2 (Homo sapiens, UniProt Q12809); experiment: Inhibition of human ERG up to 25 uM
Hepatitis C virus [7] = experiment: Antiviral activity against HCV genotype 1 infected in human at 300 mg, po; type: functional, Hepacivirus hominis
[8] = Selectivity ratio of IC50 for cathepsin D to IC50 for HCV1b NS3/4A protease
[9] = Selectivity ratio of IC50 for cathepsin L to IC50 for HCV1b NS3/4A protease
[10] = molecular target: T1, Solute carrier family 22 member 7 (Homo sapiens, UniProt Q9Y694); experiment: Activity at OAT2
T1 sequence (Q9Y694 whole entry): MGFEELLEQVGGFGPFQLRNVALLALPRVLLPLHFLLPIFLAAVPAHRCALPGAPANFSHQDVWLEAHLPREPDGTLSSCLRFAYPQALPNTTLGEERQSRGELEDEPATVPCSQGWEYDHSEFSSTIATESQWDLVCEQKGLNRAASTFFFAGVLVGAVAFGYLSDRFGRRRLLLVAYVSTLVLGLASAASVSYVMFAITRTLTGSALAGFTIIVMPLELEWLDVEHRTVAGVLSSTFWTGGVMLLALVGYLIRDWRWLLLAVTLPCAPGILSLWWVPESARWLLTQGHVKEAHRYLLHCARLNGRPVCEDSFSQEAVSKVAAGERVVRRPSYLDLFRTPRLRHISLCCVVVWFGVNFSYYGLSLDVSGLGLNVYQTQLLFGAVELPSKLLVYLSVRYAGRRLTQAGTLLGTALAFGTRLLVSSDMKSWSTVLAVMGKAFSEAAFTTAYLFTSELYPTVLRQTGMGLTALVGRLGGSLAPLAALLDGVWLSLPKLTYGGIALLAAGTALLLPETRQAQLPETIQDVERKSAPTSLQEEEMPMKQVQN

[11] = Drug excretion in iv dosed bile-cannulated rat bile assessed as parent compound level after 4 hrs; type: ADME, organism-based; settings: read-out: Ae
[12] = Inhibition of P-glycoprotein
[13] = Selectivity ratio of IC50 for human leukocyte protease to IC50 for HCV1b NS3/4A protease
[14] = Selectivity ratio of IC50 for porcine pancreatic elastase to IC50 for HCV1b NS3/4A protease
Bile salt export pump = Bile salt export pump (Homo sapiens, UniProt O95342); experiment: Inhibition of BSEP
[15] = Inhibition of CYP450; type: ADME
[16] = Half life in human; type: ADME, organism-based; settings: in vivo
[17] = Oral bioavailability in dog at 4 mg/kg; type: ADME, organism-based, Canis lupus familiaris; settings: in vivo
Hepatitis C virus [18] = experiment: Antiviral activity against HCV genotype 1 infected in human at 150 mg, po; type: functional, Hepacivirus hominis
[19] = Selectivity ratio of IC50 human protease 3 to IC50 for HCV 1b NS3/4A protease
[20] = molecular target: T2, Solute carrier family 22 member 6 (Homo sapiens, UniProt Q4U2R8); experiment: Activity at OAT1
T2 sequence (Q4U2R8 whole entry): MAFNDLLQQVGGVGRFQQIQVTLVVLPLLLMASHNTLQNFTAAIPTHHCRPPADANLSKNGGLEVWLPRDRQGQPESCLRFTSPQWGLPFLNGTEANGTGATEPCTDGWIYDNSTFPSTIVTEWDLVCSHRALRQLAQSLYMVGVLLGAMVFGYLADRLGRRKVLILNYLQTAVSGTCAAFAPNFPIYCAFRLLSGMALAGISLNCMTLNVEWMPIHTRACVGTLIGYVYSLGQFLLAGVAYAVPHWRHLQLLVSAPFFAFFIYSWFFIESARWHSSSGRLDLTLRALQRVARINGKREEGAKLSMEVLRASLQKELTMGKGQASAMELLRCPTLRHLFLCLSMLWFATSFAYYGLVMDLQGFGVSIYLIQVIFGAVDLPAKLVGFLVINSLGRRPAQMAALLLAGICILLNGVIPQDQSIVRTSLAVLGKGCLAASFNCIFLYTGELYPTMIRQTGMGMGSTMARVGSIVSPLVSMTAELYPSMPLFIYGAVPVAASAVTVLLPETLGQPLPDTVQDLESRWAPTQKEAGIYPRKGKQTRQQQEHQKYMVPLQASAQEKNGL

Hepatitis C virus [21] = experiment: Antiviral activity against HCV genotype 1 infected in human at 450 mg, po; type: functional, Hepacivirus hominis

Chain of Bile salt export pump (O95342 whole entry): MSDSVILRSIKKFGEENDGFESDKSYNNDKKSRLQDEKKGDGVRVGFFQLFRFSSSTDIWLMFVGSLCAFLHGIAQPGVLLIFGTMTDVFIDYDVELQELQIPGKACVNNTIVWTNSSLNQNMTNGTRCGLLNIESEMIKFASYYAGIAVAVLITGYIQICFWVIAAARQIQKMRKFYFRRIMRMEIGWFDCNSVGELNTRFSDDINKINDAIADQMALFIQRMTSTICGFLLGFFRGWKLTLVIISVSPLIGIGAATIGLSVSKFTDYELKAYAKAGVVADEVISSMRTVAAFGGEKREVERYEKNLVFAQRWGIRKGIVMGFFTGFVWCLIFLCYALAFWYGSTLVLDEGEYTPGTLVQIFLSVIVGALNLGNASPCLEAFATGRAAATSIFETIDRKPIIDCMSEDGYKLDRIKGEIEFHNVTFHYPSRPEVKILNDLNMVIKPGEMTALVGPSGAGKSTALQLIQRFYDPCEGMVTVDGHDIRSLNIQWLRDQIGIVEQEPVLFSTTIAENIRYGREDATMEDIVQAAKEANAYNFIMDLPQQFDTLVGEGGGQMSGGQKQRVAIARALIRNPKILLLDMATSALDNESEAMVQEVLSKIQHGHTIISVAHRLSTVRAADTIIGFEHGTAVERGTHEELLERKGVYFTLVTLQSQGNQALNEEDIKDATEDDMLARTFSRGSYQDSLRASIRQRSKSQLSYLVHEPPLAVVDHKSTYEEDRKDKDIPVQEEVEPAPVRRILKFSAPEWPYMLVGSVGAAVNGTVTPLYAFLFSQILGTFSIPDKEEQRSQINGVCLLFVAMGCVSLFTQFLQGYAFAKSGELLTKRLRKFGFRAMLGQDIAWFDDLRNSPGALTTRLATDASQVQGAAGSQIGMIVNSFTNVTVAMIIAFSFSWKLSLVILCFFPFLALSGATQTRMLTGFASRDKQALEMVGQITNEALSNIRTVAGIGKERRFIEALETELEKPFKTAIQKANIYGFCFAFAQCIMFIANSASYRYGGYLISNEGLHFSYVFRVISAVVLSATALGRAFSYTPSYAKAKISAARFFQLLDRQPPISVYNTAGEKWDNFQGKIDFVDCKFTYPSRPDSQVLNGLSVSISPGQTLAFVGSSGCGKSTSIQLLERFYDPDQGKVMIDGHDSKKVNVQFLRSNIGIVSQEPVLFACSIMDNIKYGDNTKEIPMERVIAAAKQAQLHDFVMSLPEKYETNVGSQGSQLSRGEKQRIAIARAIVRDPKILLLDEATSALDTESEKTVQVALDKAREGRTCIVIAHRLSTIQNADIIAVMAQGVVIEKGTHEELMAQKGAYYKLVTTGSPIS
Chain of Voltage-gated inwardly rectifying potassium channel KCNH2 (Q12809 whole entry): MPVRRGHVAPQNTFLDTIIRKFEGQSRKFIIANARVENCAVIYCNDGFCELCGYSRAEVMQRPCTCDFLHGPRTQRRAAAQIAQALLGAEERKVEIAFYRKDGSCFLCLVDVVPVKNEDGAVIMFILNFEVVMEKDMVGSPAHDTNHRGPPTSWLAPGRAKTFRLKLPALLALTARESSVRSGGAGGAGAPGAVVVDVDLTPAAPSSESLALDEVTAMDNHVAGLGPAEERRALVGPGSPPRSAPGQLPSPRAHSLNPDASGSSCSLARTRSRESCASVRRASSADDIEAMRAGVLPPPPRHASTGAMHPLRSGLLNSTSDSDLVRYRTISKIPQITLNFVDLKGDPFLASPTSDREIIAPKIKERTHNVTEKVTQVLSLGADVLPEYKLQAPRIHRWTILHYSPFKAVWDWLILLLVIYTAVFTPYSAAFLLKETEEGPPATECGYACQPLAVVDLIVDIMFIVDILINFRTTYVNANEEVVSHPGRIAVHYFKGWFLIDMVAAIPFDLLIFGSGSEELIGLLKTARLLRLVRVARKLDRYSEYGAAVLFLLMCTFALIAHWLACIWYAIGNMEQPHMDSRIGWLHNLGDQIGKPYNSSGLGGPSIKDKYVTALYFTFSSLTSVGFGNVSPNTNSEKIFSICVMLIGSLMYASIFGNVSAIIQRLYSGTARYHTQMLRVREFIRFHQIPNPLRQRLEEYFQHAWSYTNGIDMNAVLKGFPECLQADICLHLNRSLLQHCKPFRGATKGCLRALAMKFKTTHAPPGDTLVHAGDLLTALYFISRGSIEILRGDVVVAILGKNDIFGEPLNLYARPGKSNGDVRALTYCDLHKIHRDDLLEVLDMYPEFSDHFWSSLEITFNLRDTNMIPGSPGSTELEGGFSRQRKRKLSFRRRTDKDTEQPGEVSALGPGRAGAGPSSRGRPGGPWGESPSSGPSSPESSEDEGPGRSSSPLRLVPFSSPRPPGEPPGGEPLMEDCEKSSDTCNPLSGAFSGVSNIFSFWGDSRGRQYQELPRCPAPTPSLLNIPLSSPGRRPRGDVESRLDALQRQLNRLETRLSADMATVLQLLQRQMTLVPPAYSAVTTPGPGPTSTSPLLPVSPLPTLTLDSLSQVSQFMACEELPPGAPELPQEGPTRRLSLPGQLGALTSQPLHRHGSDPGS

SMILES	IC50 (Hepatitis C virus [1]) [nM]	Papp B→A [2] [×10⁻⁶ cm/s]	Papp A→B [3] [×10⁻⁶ cm/s]	EC50 (Hepatitis C virus [4]) [nM]	further results
C=C[C@@H]1C[C@]1(NC(=O)[C@@H]1C[C@@H](Oc2cc(-c3csc(NC(C)C)n3)nc3cc(OC)ccc23)CN1C(=O)[C@@H](NC(=O)OC1CCCC1)C(C)(C)C)P(=O)(O)Cc1ccc(C)cc1	15	12	0.69	860	–
C=C[C@@H]1C[C@]1(NC(=O)[C@@H]1C[C@@H](Oc2cc(-c3csc(NC(C)C)n3)nc3cc(OC)ccc23)CN1C(=O)[C@@H](NC(=O)OC1CCCC1)C(C)(C)C)P(=O)(O)Cc1ccccc1C	8	3.9	0.69	146	–
C=C[C@@H]1C[C@]1(NC(=O)[C@@H]1C[C@@H](Oc2cc(-c3csc(NC(C)C)n3)nc3cc(OC)ccc23)CN1C(=O)[C@@H](NC(=O)OC1CCCC1)C(C)(C)C)P(=O)(O)Cc1ccccc1	7	6.1	0.7	170	–
COc1ccc2c(O[C@@H]3C[C@H]4C(=O)N[C@]5(P(=O)(O)Cc6ccccc6)C[C@H]5CCCCCCC[C@H](NC(=O)OC5CCCC5)C(=O)N4C3)cc(-c3csc(NC(C)C)n3)nc2c1	6	–	–	5	clearance [5]: 6 mL/min/kg
C=C[C@@H]1C[C@]1(NC(=O)[C@@H]1C[C@@H](Oc2cc(-c3csc(NC(C)C)n3)nc3cc(OC)ccc23)CN1C(=O)[C@@H](NC(=O)OC1CCCC1)C(C)(C)C)P(=O)(O)Cc1cccc(C)c1	8	3.5	0.64	331	–
C=C[C@@H]1C[C@]1(NC(=O)[C@@H]1C[C@@H](Oc2cc(-c3csc(NC(C)C)n3)nc3cc(OC)ccc23)CN1C(=O)[C@@H](NC(=O)OC1CCCC1)C(C)(C)C)P(=O)(O)Cc1c(F)cccc1Cl	6	5.87	0.89	120	–
C=C[C@@H]1C[C@]1(NC(=O)[C@@H]1C[C@@H](Oc2cc(-c3csc(NC(C)C)n3)nc3cc(OC)ccc23)CN1C(=O)[C@@H](NC(=O)OC1CCCC1)C(C)(C)C)P(=O)(O)Cc1ccc(OC)cc1	10	5.83	0.71	460	–
C=C[C@@H]1C[C@]1(NC(=O)[C@@H]1C[C@@H](Oc2cc(-c3csc(NC(C)C)n3)nc3cc(OC)ccc23)CN1C(=O)[C@@H](NC(=O)OC1CCCC1)C(C)(C)C)P(=O)(O)Cc1ccc(F)cc1	7	4.38	0.84	284	–
COc1ccc2c(O[C@@H]3C[C@H]4C(=O)N[C@]5(P(=O)(O)Cc6c(F)cccc6F)C[C@H]5CCCCCCC[C@H](NC(=O)OC5CCCC5)C(=O)N4C3)cc(-c3csc(NC(C)C)n3)nc2c1Cl [GS-9256]	4	–	–	20	inhibition (INH) [6]: Not Active; Activity (Hepatitis C virus [7]): -2.4 log10IU/ml; Ki (Hepatitis C virus [1]): 0.089 nM; Ratio IC50 [8]: 5300; Ratio IC50 [9]: 5400; Activity [10]: Active; dose excreted at 4 h [11]: 95%; inhibition [12]: Active; Ratio IC50 [13]: 987; Ratio IC50 [14]: 28600; inhibition (INH) (Bile salt export pump): Active; inhibition (INH) [15]: Not Active; half-life [16]: 7 h; bioavailability [17]: 21%; Activity (Hepatitis C virus [18]): -1.8 log10IU/ml; Ratio IC50 [19]: 6600; Activity [20]: Active; Activity (Hepatitis C virus [21]): -2.8 log10IU/ml
C=C[C@@H]1C[C@]1(NC(=O)[C@@H]1C[C@@H](Oc2cc(-c3csc(NC(C)C)n3)nc3cc(OC)ccc23)CN1C(=O)[C@@H](NC(=O)OC1CCCC1)C(C)(C)C)P(=O)(O)Cc1cccc(OC)c1	7	8.28	0.39	540	–
COc1ccc2c(O[C@@H]3C[C@H]4C(=O)N[C@]5(C(=O)O)C[C@H]5/C=C\CCCCC[C@H](NC(=O)OC5CCCC5)C(=O)N4C3)cc(-c3csc(NC(C)C)n3)nc2c1 [CILUPREVIR]	1	–	–	1	–
C=C[C@@H]1C[C@]1(NC(=O)[C@@H]1C[C@@H](Oc2cc(-c3csc(NC(C)C)n3)nc3cc(OC)ccc23)CN1C(=O)[C@@H](NC(=O)OC1CCCC1)C(C)(C)C)P(=O)(O)Cc1c(C)cccc1C	63	2.93	0.19	7700	–
COc1ccc2c(O[C@@H]3C[C@H]4C(=O)N[C@]5(P(=O)(O)Cc6c(F)cccc6F)C[C@H]5CCCCCCC[C@H](NC(=O)OC5CCCC5)C(=O)N4C3)cc(-c3csc(NC(C)C)n3)nc2c1	4	–	–	10	bioavailability [17]: 2.9%
C=C[C@@H]1C[C@]1(NC(=O)[C@@H]1C[C@@H](Oc2cc(-c3csc(NC(C)C)n3)nc3cc(OC)ccc23)CN1C(=O)[C@@H](NC(=O)OC1CCCC1)C(C)(C)C)P(=O)(O)Cc1ccccc1OC	6	6.2	0.43	48	–
C=C[C@@H]1C[C@]1(NC(=O)[C@@H]1C[C@@H](Oc2cc(-c3csc(NC(C)C)n3)nc3cc(OC)ccc23)CN1C(=O)[C@@H](NC(=O)OC1CCCC1)C(C)(C)C)P(=O)(O)Cc1cccc(F)c1	8	1.8	0.34	239	–
COc1ccc2c(O[C@@H]3C[C@H]4C(=O)N[C@]5(P(=O)(O)Cc6c(F)cccc6F)C[C@H]5CCCCCCC[C@H](NC(=O)OC5CCCC5)C(=O)N4C3)cc(-c3csc(NC(C)C)n3)nc2c1F	11	–	–	43	bioavailability [17]: 6%
C=C[C@@H]1C[C@]1(NC(=O)[C@@H]1C[C@@H](Oc2cc(-c3csc(NC(C)C)n3)nc3cc(OC)ccc23)CN1C(=O)[C@@H](NC(=O)OC1CCCC1)C(C)(C)C)P(=O)(O)Cc1ccccc1F	4	2.74	0.53	170	–
COc1ccc2c(O[C@@H]3C[C@H]4C(=O)N[C@]5(P(=O)(O)Cc6c(F)cccc6F)C[C@H]5CCCCCCC[C@H](NC(=O)OC5CCCC5)C(=O)N4C3)cc(-c3csc(NC(C)C)n3)nc2c1Br	3	–	–	7	bioavailability [17]: 4.1%
C=C[C@@H]1C[C@]1(NC(=O)[C@@H]1C[C@@H](Oc2cc(-c3csc(NC(C)C)n3)nc3cc(OC)ccc23)CN1C(=O)[C@@H](NC(=O)OC1CCCC1)C(C)(C)C)P(=O)(O)Cc1c(F)cccc1C(F)(F)F	6	6.36	0.53	340	–
